From patent US20240294551A1 (AMGEN INC., priority 2022, published 2024) come the findings set out here.

What is called inhibition in vivo is the relative decrease from the control value, in per cent. Higher therefore signals strong suppression.

Data set [1] deals with GDP-bound KRAS protein (aa 1-169), containing both G12D and C118A amino acid substitutions (Homo sapiens (Human), UniProt P01116, C118A/G12D). The data set can be described thus: KRAS G12D Coupled Nucleotide Exchange Assay. It is filed as biochemical. Particulars: read-out: KRAS G12D Coupled Exchange IC50.
Data set [2] deals with Phosphorylation of ERK1/2 in AsPC-1 cells. The data set can be described thus: Phospho-ERK1/2 MSD Assay. The class given is cell-based, human. Particulars: Homo sapiens, ASPC1, 2 h, read-out: 2 h p-ERK (AsPC-1 cells), IC50. The gist of the method:
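Read-out: MSD electrochemiluminescent detection of phosphorylated ERK1/2 in whole-cell lysates, fitted to a 4-parameter logistic curve for IC50. Prior to lysis, AsPC-1 cells (25,000 per well) received a 2 h compound dose-response at 37 °C.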

The test system of data set [3] is AsPC-1 cells. The data set can be described thus: AsPC-1 CTG Assay (CellTiter-Glo cell viability). It is filed as cell-based, human. The settings on record: Homo sapiens, ASPC1, 72 h, AsPC-1, 72 h; first value of the cell; read-out: G12D/C/V Cell Proliferation CTG (72 h) AsPC-1. An outline of the steps: (§1)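 IC50 values derive from 4-parameter logistic fits of CellTiter-Glo luminescence, expressed relative to DMSO. Compound dilution series were applied to overnight-seeded AsPC-1 or SW620 cells (RPMI 1640, 10% FBS) for 72 h at 37 °C, 5% CO2.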
A general note: ATP-based viability assays read luminescence as a measure of living cells.

In data set [4] the target is His-tagged KRAS G12D protein (Homo sapiens (Human), UniProt P01116, G12D). The data set is described as follows: KRAS G12D TR-FRET Assay. Particulars: read-out: KRAS G12D Binding IC50. The class given is binding. An outline of the steps:
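Each incubation ran at room temperature: enzyme with compound for 30 minutes, peptide for one hour, and detection reagents (0.4 nM europium anti-6×His, 5 nM streptavidin-d2) for one hour more. Protein and peptide stocks were each diluted to 20 nM before addition.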
On the technique in general: In TR-FRET formats the signal depends on donor and acceptor labels being close together.

Data set [5] has as its system MIA PaCa-2 cells. The data set is described as follows: MIA PaCa-2 CTG Assay (CellTiter-Glo cell viability). The class given is cell-based, human. Particulars: Homo sapiens; Mia PaCa-2, 72 h; second value of the cell; read-out: G12D/C/V Cell Proliferation CTG (72 h) Mia PaCa-2. The gist of the method:
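IC50 values come from a 4-parameter logistic fit of CellTiter-Glo luminescence, normalized to DMSO control, after 72 h compound exposure at 37° C, 5% CO2. Cells grew in RPMI 1640 plus 10% FBS and were seeded at 1.67E+04 cells/mL one night before dosing.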

Data set [6] has as its system p-ERK in PANC 04.03 tumor-bearing mice. The data set can be described thus: Tumor Pharmacodynamic Assay (p-ERK inhibition in PANC 04.03 tumors). It is filed as in vivo. The settings on record: Mus musculus; PANC 04.03 tumor-bearing female athymic nude mice; single oral dose 100 mg/kg; tumors harvested 2 hr later; relative to vehicle group. As for the experimental part: Tumor Pharmacodynamic Assays
Inhibitor pharmacodynamic effects were assessed in PANC 04.03 tumor-bearing mice. PANC 04.03 tumor cells (5.0E+06 cells) were injected subcutaneously into the flank of female athymic nude mice in a mixture with Matrigel (BD Bioscience). Mice received a single oral dose of either vehicle or inhibitor (100 mg/kg) when the average tumor size reached -300-600 mm^3 (n=3/group) and harvested 2 hours later. Tumor samples were collected, snap frozen, and processed for analysis by pulverizing with a cryoPREP® Dry Impactor (Covaris). Pulverized samples were resuspended in RIPA lysis buffer containing protease and phosphatase inhibitors and homogenized. Cleared lysates were analyzed using phospho-ERK1/2 and total ERK1/2 whole cell lysate kits (Meso Scale Discovery) according to the manufacturer's protocol. Phospho-ERK1/2 signal was normalized to total ERK1/2 signal for a given sample, and percent inhibition of p-ERK was calculated relative to the vehicle group.

Data set [7] deals with SW620 cells. The data set is described as follows: SW620 CTG Assay (CellTiter-Glo cell viability). The class given is cell-based, human. The settings on record: Homo sapiens, SW-620; SW620, 72 h; third value of the cell; read-out: G12D/C/V Cell Proliferation CTG (72 h) SW620. An outline of the steps: as §1

pIC50: −log10 of the molar value. Where two headings read alike, the source gives them in different places.

Sequence of His-tagged KRAS G12D protein (P01116 other isoform, or with tags, fused parts or gaps G12D): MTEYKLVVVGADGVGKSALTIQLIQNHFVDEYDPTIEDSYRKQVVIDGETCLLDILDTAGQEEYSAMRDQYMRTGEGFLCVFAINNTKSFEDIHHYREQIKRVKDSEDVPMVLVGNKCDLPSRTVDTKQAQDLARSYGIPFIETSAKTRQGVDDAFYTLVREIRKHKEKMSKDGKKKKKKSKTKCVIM
Sequence of GDP-bound KRAS protein (aa 1-169), containing both G12D and C118A amino acid substitutions (P01116 other isoform, or with tags, fused parts or gaps G12D/C118A): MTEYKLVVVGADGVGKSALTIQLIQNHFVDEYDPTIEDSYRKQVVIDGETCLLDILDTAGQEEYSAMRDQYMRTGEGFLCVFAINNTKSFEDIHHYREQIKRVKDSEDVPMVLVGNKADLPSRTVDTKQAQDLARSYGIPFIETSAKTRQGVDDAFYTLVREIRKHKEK

`COCOc1cc2c3c(c(F)ccc3c1)CCCC(=O)N[C@]1(C)CCCN(C1)c1nc(OC)nc3c(F)c-2ncc13` registered a ring closure, yield after HPLC (from COCOc1cc(-c2ncc3c(N4CCC[C@@](C)(N)C4)nc(OC)nc3c2F)c2c(CCCC(=O)O)c(F)ccc2c1, amide bond, 16-membered ring, HATU/DIEA, then HCl/dioxane, DMF, 8.3 mM, 25.0 °C, 2 steps) of 5%.
`CSc1nc2c3cnc(c(C)c3n1)-c1cc(O)cc3ccc(F)c(c13)CCCC(=O)N[C@]1(C)CCCN2C1`: the ring closure, yield after HPLC (from CSc1nc(N2CCC[C@@](C)(N)C2)c2cnc(-c3cc(O)cc4ccc(F)c(CCCC(=O)O)c34)c(C)c2n1, amide bond, 16-membered ring, HATU, then Me2NH, DCM/DMA/DMF, 5.6 mM, 25.0 °C, 4.0 h) worked out at 32%.
`Fc1c2ncc3c(nc(OC[C@@]45CCCN4C[C@H](F)C5)nc13)N1CCCC3(CC(C3)OCCCCc3c(Cl)cc4[nH]ncc4c3-2)C1`: the ring closure, yield after HPLC (from Fc1c(-c2c(CCCCOC3CC4(CCCNC4)C3)c(Cl)cc3[nH]ncc23)ncc2c(OCC(F)(F)F)nc(OC[C@@]34CCCN3C[C@H](F)C4)nc12, snar bond, 17-membered ring, Cs2CO3, MeCN/DMF, 5.0 mM, 80.0 °C) was 5%.
In turn, `O=C1CCCc2cccc3cc(O)cc(c23)-c2ncc3c(nc(OC[C@@]45CCCN4C[C@H](F)C5)nc3c2F)N2CCC[C@H](C2)N1` [Example 1, (15R)-31-Fluoro-8-(((2R,7aS)-2-fluorotetrahydro-1H-pyrrolo[1,2-a]pyrrol-7a(5H)-yl)methoxy)-27-hydroxy-3,7,9,11,16-pentaazahexacyclo[19.7.1.1˜2,6˜.1˜11,15˜.0˜5,10˜.0˜25,29˜]hentriaconta-1(28),2(31),3,5,7,9,21,23,25(29),26-decaen-17-one bis(2,2,2-trifluoroacetate)] showed a ring closure, yield after HPLC (from N[C@@H]1CCCN(c2nc(OC[C@@]34CCCN3C[C@H](F)C4)nc3c(F)c(-c4cc(O)cc5cccc(CCCC(=O)O)c45)ncc23)C1, amide bond, 16-membered ring, HATU/DIEA, then NH3/MeOH, DMF, 8.9 mM, 25.0 °C, 1.0 h) of 7%. In addition, the pIC50 is 8.40 in data set [1], 6.71 in data set [2], 5.71 in data set [3] and 8.30 in data set [4].
In turn, `C[C@@]12CCCN(C1)c1nc(OC[C@@]34CCCN3C[C@H](F)C4)nc3c(F)c(ncc13)-c1cccc3c1N(CCCC(=O)N2)CCC3` [Example 13, (15R)-31-Fluoro-8-(((2R,7aS)-2-fluorotetrahydro-1H-pyrrolo[1,2-a]pyrrol-7a(5H)-yl)methoxy)-15-methyl-3,7,9,11,16,21-hexaazahexacyclo[19.7.1.1˜2,6˜.1˜11,15˜.0˜5,10˜.0˜25,29˜]hentriaconta-1(29),2(31),3,5,7,9,25,27-octaen-17-one bis(2,2,2-trifluoroacetate)] registered a ring closure, yield after HPLC (from C[C@@]1(N)CCCN(c2nc(OC[C@@]34CCCN3C[C@H](F)C4)nc3c(F)c(-c4cccc5c4N(CCCC(=O)O)CCC5)ncc23)C1, amide bond, 16-membered ring, HATU/TEA, DCM/THF/DMA, 0.98 mM, 25.0 °C) of 33%. The pIC50 was 6.47 in data set [1] and 6.62 in data set [4].
Turning to `O=C1OCCCc2c(Cl)cc3[nH]ncc3c2-c2ncc3c(nc(OC[C@@]45CCCN4C[C@H](F)C5)nc3c2F)N2CCOC[C@H](C2)O1` [Example 99, (26S)-18-Chloro-32-fluoro-4-(((2R,7aS)-2-fluorotetrahydro-1H-pyrrolo[1,2-a]pyrrol-7a(5H)-yl)methoxy)-23,25,28-trioxa-1,3,5,9,14,15-hexaazahexacyclo[24.4.1.1˜6,10˜.0˜2,7˜.0˜11,19˜.0˜12,16˜]dotriaconta-2,4,6,8,10(32),11,13,16,18-nonaen-24-one], the pIC50 was 9.00 in data set [5]; 8.70 in data set [1]; 8.70 in data set [2]; 7.52 in data set [3]; 8.00 in data set [7]; 8.52 in data set [4]. The compound further registered an inhibition in vivo at 100 mg/kg in data set [6] of 91%.
In the case of `Cc1cc2[nH]ncc2c2c1CCCOC(=O)O[C@]1(C)COCCN(C1)c1nc(OC[C@@]34CCCN3C[C@H](F)C4)nc3c(F)c-2ncc13` [Example 190, (26S)-32-fluoro-4-(((2R,7aS)-2-fluorotetrahydro-1H-pyrrolo[1,2-a]pyrrol-7a(5H)-yl)methoxy)-18,26-dimethyl-23,25,28-trioxa-1,3,5,9,14,15-hexaazahexacyclo[24.4.1.1~6,10~.0~2,7~.0~11,19~.0~12,16~]dotriaconta-2,4,6,8,10(32),11,13,16,18-nonaen-24-one], the pIC50 in data set [5] was 8.40; in data set [1], 8.70; in data set [2], 8.35; in data set [3] it was 8.30; in data set [7], 8.40; in data set [4], 8.40. Besides, testing at 100 mg/kg in data set [6] gave an inhibition in vivo of 86%.
Take `C[C@@]12COCCN(C1)c1nc(OC[C@@]34CCCN3C[C@H](F)C4)nc3c(F)c(ncc13)-c1c(c(Cl)cc3[nH]ncc13)CCCOC(=O)O2` [Example 191, (26S)-18-chloro-32-fluoro-4-(((2R,7aS)-2-fluorotetrahydro-1H-pyrrolo[1,2-a]pyrrol-7a(5H)-yl)methoxy)-26-methyl-23,25,28-trioxa-1,3,5,9,14,15-hexaazahexacyclo[24.4.1.1~6,10~.0~2,7~.0~11,19~.0~12,16~]dotriaconta-2,4,6,8,10(32),11,13,16,18-nonaen-24-one]: the pIC50 was 9.00 in data set [5]; 8.70 in data set [1]; 8.72 in data set [2]; 8.10 in data set [3]; 8.70 in data set [7]; 8.52 in data set [4]. The inhibition in vivo at 100 mg/kg in data set [6] is 91%.
Consider `Cc1cc2[nH]ncc2c2c1CCOC(=O)O[C@H]1C[C@@]3(CCCN(C3)c3nc(OC[C@@]45CCCN4C[C@H](F)C5)nc4c(F)c-2ncc34)C1` [Example 194, (1S,3R)-32-fluoro-24-(((2R,7aS)-2-fluorotetrahydro-1H-pyrrolo[1,2-a]pyrrol-7a(5H)-yl)methoxy)-10-methyl-4,6-dioxa-13,14,19,23,25,27-hexaazaheptacyclo[25.3.1.1~1,3~.1~18,22~.0~9,17~.0~12,16~.0~21,26~]tritriaconta-9,11,14,16,18(32),19,21,23,25-nonaen-5-one], for which the pIC50 is 8.15 in data set [5]; 8.52 in data set [1]; 8.89 in data set [2]; 8.22 in data set [3]; 8.40 in data set [7]; 8.30 in data set [4]. For the same compound, the inhibition in vivo at 100 mg/kg in data set [6] was 88%.
Take `O=C1OCCc2c(Cl)cc3[nH]ncc3c2-c2ncc3c(nc(OC[C@@]45CCCN4C[C@H](F)C5)nc3c2F)N2CCC[C@]3(C2)C[C@H](C3)O1` [Example 249, (1S,3R)-10-chloro-32-fluoro-24-(((2R,7aS)-2-fluorotetrahydro-1H-pyrrolo[1,2-a]pyrrol-7a(5H)-yl)methoxy)-4,6-dioxa-13,14,19,23,25,27-hexaazaheptacyclo[25.3.1.1~1,3~.1~18,22~.0~9,17~.0~12,16~.0~21,26~]tritriaconta-9,11,14,16,18(32),19,21,23,25-nonaen-5-one]: the pIC50 in data set [5] is 8.70; in data set [1], 9.00; in data set [2], 9.15; in data set [3], 8.30; in data set [7], 8.52; in data set [4], 8.40. Moreover, 100 mg/kg produced 90% inhibition in vivo in data set [6].
